GI50 and IC50 data for 24 compounds are collected here from patent US20220024921A1, “1,3,4-OXADIAZOLONE COMPOUND AND PHARMACEUTICAL” (NIPPON SHINYAKU CO., LTD., priority 2018, published 2022).

Each structure is given as a SMILES string. Structures can show the parent of a compound that is named as a salt.

In test [1] the target is PIM1 transgenic cells (Ba/F3) (Homo sapiens, UniProt P11309). As to the kind of experiment: Proliferation inhibitory effect on PIM1 transgenic cells. The note with it: proliferation inhibition, 72 hours, Cell Counting Kit-8, read-out: PIM1 IC50. The test is classed as cell-based, mouse. The text has this:
Human PIM1, 2, and 3 genes were inserted into the multi-cloning sites of retrovirus expression vectors pMYs-IRES-GFP, respectively, to prepare gene transfer vectors. Then, each gene transfer vector was introduced into packaging cells PLAT-E derived from a human fetal kidney cell line in the logarithmic growth phase, using a transfection reagent (FuGENE6, Promega Corporation). Since the culture supernatant of PLAT-E after gene transfer contained virus particles for gene transfer, the culture supernatant was collected and used as a medium for gene transfer. The medium for gene transfer was added to a plate coated with RetroNectin, and the plate was incubated to attach the virus particles to the plate. Then, a mouse pro-B cell line Ba/F3 in the logarithmic growth phase was seeded on the plate and infected with the virus to prepare PIM1, 2, or 3 transgenic cells that proliferate in a PIM 1, 2, or 3-dependent manner. The expression of PIM1, 2, or 3 protein in each cell was confirmed by Western blotting.
Each test substance was prepared to 10 mM with dimethylsulfoxide (DMSO), and diluted with DMSO so as to have concentrations of 3000, 1000, 300, 100, 30, 10, 3, and 1 μM. Moreover, each dilution was further diluted 10-fold with distilled water to prepare a test substance solution.
PIM1, 2, 3-expressing cells were seeded on a 96-well plate, and each test substance solution prepared the next day was added such that final concentrations were 10000, 3000, 1000, 300, 100, 30, 10, 3, and 1 nM. 72 hours after the addition, 10 μL of Cell Counting Kit-8 (DOJINDO LABORATORIES) was added to each well. After incubation for 1 to 4 hours, absorbance OD450 at 450 nm was measured. In addition, absorption OD650 at 650 nm as a reference wavelength was measured.
OD450-OD650 for each condition was calculated, and then the inhibition rates when OD450-OD650 of negative control (DMSO only) and OD450-OD650 of Blank (without cells) were set to 0% and 100%, respectively, were calculated. Then, non-linear regression analysis was performed for logarithmic dose and inhibition rate using a two-parameter logistic model to estimate IC50 values.

Test [2] has as its target T1, PIM1 serine/threonine kinase (Homo sapiens, UniProt P11309).
T1 construct: purchased Carna Bioscience, Inc
The experiment in a line: PIM1 serine/threonine kinase inhibitory effect. It is filed as biochemical. The settings on record: PIM1 serine/threonine kinase activity; ATP 40 μM; 30° C., 30 minutes. An outline of the steps: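 Compounds were tested in duplicate from 0.01 to 10000 nM final against PIM1 kinase (0.15 μg/ml). The reaction ran for 30 minutes at 30° C with 40 μM ATP and 0.5 μM biotin-tagged substrate at pH 7.0. Phosphorylation was read by time-resolved FRET (OD665/OD620) after 1 h; IC50 by non-linear fit.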

Chain of PIM1 transgenic cells (Ba/F3) (P11309 whole entry, stated change not applied): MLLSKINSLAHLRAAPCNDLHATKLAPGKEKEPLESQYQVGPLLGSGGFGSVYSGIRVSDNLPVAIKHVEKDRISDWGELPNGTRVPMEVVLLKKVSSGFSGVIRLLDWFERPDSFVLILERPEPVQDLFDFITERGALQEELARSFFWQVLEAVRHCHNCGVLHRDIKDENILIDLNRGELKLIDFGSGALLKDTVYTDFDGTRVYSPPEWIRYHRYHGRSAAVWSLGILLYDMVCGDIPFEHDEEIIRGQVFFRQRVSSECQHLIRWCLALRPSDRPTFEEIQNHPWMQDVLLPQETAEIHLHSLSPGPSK
T1 sequence (P11309 whole entry): as the sequence (P11309 whole entry, stated change not applied) above

Regarding `C[C@@H](C1CCNCC1)N1CCCOc2c(F)cc(-c3n[nH]c(=O)o3)cc21` [Example 254, 5-{9-fluoro-5-[(1S)-1-(piperidin-4-yl)ethyl]-2,3,4,5-tetrahydro-1,5-benzoxazepin-7-yl}-1,3,4-oxadiazol-2(3H)-one hydrochloride], the GI50 in test [1] turned out to be 680 nM. Half-maximal inhibition in test [2] (IC50) was put at 15 nM.
The corresponding values for `O=c1[nH]nc(-c2ccc(C(F)(F)F)c(N[C@@H]3CCC34CCNCC4)c2)o1` [Example 46, 5-[3-{[(1R)-7-azaspiro[3.5]nonan-1-yl]amino}-4-(trifluoromethyl)phenyl]-1,3,4-oxadiazol-2(3H)-one hydrochloride] are 2600 nM and 290 nM.
The corresponding values for `C[C@H](Nc1cc(-c2n[nH]c(=O)o2)ccc1C(F)(F)F)C12CCC(N)(CC1)C2` [Example 187, 5-[3-{[(1S)-1-(4-aminobicyclo[2.2.1]heptan-1-yl)ethyl]amino}-4-(trifluoromethyl)phenyl]-1,3,4-oxadiazol-2(3H)-one hydrochloride] are 110 nM and 8.7 nM.
The corresponding values for `C[C@H](Nc1cc(-c2n[nH]c(=O)o2)cc(F)c1OC(F)F)C1(C)CCNCC1` [Example 213, 5-[4-(difluoromethoxy)-3-fluoro-5-{[(1S)-1-(4-methylpiperidin-4-yl)ethyl]amino}phenyl]-1,3,4-oxadiazol-2(3H)-one] are 85 nM and 2 nM.
On to `C[C@H](Nc1cc(-c2n[nH]c(=O)o2)ccc1Cl)C1CCNCC1` [Example 77, 5-(4-chloro-3-{[(1S)-1-(piperidin-4-yl)ethyl]amino}phenyl)-1,3,4-oxadiazol-2(3H)-one dihydrochloride], for which the GI50 in test [1] was determined as 180 nM. It took 5.8 nM to reach half-maximal inhibition in test [2] (IC50).
The corresponding values for `C[C@H](Nc1cc(-c2n[nH]c(=O)o2)ccc1C(F)(F)F)[C@H]1C[C@@H](NCC2CC2)C1` [Example 196, 5-[3-{[(1S)-1-{(1s,3R)-3-[(cyclopropylmethyl)amino]cyclobutyl}ethyl]amino}-4-(trifluoromethyl)phenyl]-1,3,4-oxadiazol-2(3H)-one hydrochloride] are 250 nM and 9.2 nM.
Taken in the same sequence, the figures for `CN[C@H]1CC[C@H](CNc2cc(-c3n[nH]c(=O)o3)ccc2C(F)(F)F)CC1` [Example 131, 5-[3-({[(1r,4r)-4-(methylamino)cyclohexyl]methyl}amino)-4-(trifluoromethyl)phenyl]-1,3,4-oxadiazol-2(3H)-one hydrochloride] were 71 nM and 3 nM.
`O=c1[nH]nc(-c2ccc(C(F)(F)F)c(N[C@@H](CF)C3(F)CCNCC3)c2)o1` [Example 209, 5-[3-{[(1S)-2-fluoro-1-(4-fluoropiperidin-4-yl)ethyl]amino}-4-(trifluoromethyl)phenyl]-1,3,4-oxadiazol-2(3H)-one]: the GI50 in test [1] was 100 nM. In test [2], this compound showed an IC50 of 5.7 nM.
The corresponding values for `NC1CC2(C1)CC(Nc1cc(-c3n[nH]c(=O)o3)ccc1C(F)(F)F)C2` (stereo not drawn) [Example 43, 5-{3-[(6-aminospiro[3.3]heptan-2-yl)amino]-4-(trifluoromethyl)phenyl}-1,3,4-oxadiazol-2(3H)-one hydrochloride] are 190 nM and 9.2 nM.
Taken in the same sequence, the figures for `C[C@H](Nc1cc(-c2n[nH]c(=O)o2)ccc1C(F)(F)F)C1(C)CCNCC1` [Example 144, 5-[3-{[(1S)-1-(4-methylpiperidin-4-yl)ethyl]amino}-4-(trifluoromethyl)phenyl]-1,3,4-oxadiazol-2(3H)-one hydrochloride] were 64 nM and 2.9 nM.
The corresponding values for `C[C@@H]1CNCC[C@@H]1[C@H](C)Nc1cc(-c2n[nH]c(=O)o2)ccc1OC(F)F` [Example 220, 5-[4-(difluoromethoxy)-3-({(1S)-1-[(3S,4S)-3-methylpiperidin-4-yl]ethyl}amino)phenyl]-1,3,4-oxadiazol-2(3H)-one] are 110 nM and 6.1 nM.
For the compound `N[C@H]1CC[C@H](COc2cc(-c3n[nH]c(=O)o3)ccc2Cl)CC1` [Example 241, 5-(3-{[(1r,4r)-4-aminocyclohexyl]methoxy}-4-chlorophenyl)-1,3,4-oxadiazol-2(3H)-one], the GI50 in test [1] was 79 nM. In test [2], this compound had an IC50 of 3.7 nM.
For the compound `CCOc1c(F)cc(-c2n[nH]c(=O)o2)cc1N[C@@H](C)[C@H]1CC[C@H](N)CC1` [Example 173, 5-[3-({(1S)-1-[(1r,4S)-4-aminocyclohexyl]ethyl}amino)-4-ethoxy-5-fluorophenyl]-1,3,4-oxadiazol-2(3H)-one dihydrochloride], the GI50 in test [1] came out at 250 nM. In test [2], this compound registered an IC50 of 10 nM.
For `CC(C)(CN)C1CCN(c2cc(-c3n[nH]c(=O)o3)ccc2C(F)(F)F)CC1` [Example 13, 5-{3-[4-(1-amino-2-methylpropan-2-yl)piperidin-1-yl]-4-(trifluoromethyl)phenyl}-1,3,4-oxadiazol-2(3H)-one], the GI50 in test [1] was 540 nM. Also, the IC50 in test [2] turned out to be 30 nM.
The corresponding values for `NCCCCCNc1cc(-c2n[nH]c(=O)o2)ccc1C(F)(F)F` [Example 3, 5-{3-[(5-aminopentyl)amino]-4-(trifluoromethyl)phenyl}-1,3,4-oxadiazol-2(3H)-one hydrochloride] are 7900 nM and 11 nM.
Taken in the same sequence, the figures for `CC1(CCNc2cc(-c3n[nH]c(=O)o3)ccc2C(F)(F)F)CCNCC1` [Example 70, 5-[3-{[2-(4-methylpiperidin-4-yl)ethyl]amino}-4-(trifluoromethyl)phenyl]-1,3,4-oxadiazol-2(3H)-one hydrochloride] were 1700 nM and 4.2 nM.
The corresponding values for `CC1CN(C(C)C2CCC(N)CC2)c2cc(-c3n[nH]c(=O)o3)cc(F)c2O1` [Example 252, 5-[(2S)-4-{(1S)-1-[(1r,4S)-4-aminocyclohexyl]ethyl}-8-fluoro-2-methyl-3,4-dihydro-2H-1,4-benzoxazin-6-yl]-1,3,4-oxadiazol-2(3H)-one hydrochloride] are 210 nM and 6.6 nM.
Take `O=c1[nH]nc(-c2ccc(C(F)(F)F)c(N[C@H]3CCC34CCNCC4)c2)o1` [Example 45, 5-[3-{[(1S)-7-azaspiro[3.5]nonan-1-yl]amino}-4-(trifluoromethyl)phenyl]-1,3,4-oxadiazol-2(3H)-one hydrochloride]: the GI50 in test [1] was 390 nM. This compound registered an IC50 in test [2] of 20 nM.
The corresponding values for `N[C@H]1CO[C@H](CCc2cc(-c3n[nH]c(=O)o3)ccc2C(F)(F)F)OC1` [Example 28, 5-[3-{2-[(2r,5r)-5-amino-1,3-dioxan-2-yl]ethyl}-4-(trifluoromethyl)phenyl]-1,3,4-oxadiazol-2(3H)-one hydrochloride] are 3500 nM and 38 nM.
Taken in the same sequence, the figures for `C[C@H](Nc1cc(-c2n[nH]c(=O)o2)cc(F)c1OC(F)(F)F)C1(C)CCNCC1` [Example 207, 5-[3-fluoro-5-{[(1S)-1-(4-methylpiperidin-4-yl)ethyl]amino}-4-(trifluoromethoxy)phenyl]-1,3,4-oxadiazol-2(3H)-one] were 50 nM and 2.6 nM.
For the compound `O=c1[nH]nc(-c2ccc(C(F)(F)F)c(NC3CC34CCNCC4)c2)o1` (stereo not drawn) [Example 42, 5-{3-[(6-azaspiro[2.5]octan-1-yl)amino]-4-(trifluoromethyl)phenyl}-1,3,4-oxadiazol-2(3H)-one hydrochloride], the GI50 in test [1] amounted to 270 nM. Also, the IC50 in test [2] turned out to be 10 nM.
Turning to `CC(Oc1cc(-c2n[nH]c(=O)o2)ccc1Br)[C@H]1CC[C@H](N)CC1` (stereo partly drawn) [Example 237, 5-(3-{1-[(1r,4r)-4-aminocyclohexyl]ethoxy}-4-bromophenyl)-1,3,4-oxadiazol-2(3H)-one], in test [1], the GI50 is 90 nM. Besides, the IC50 in test [2] turned out to be 5.3 nM.
Take `O=c1[nH]nc(-c2ccc(C(F)(F)F)c(N[C@H](C3CCNCC3)C(F)(F)F)c2)o1` [Example 146, 5-[4-(trifluoromethyl)-3-{[(1R)-2,2,2-trifluoro-1-(piperidin-4-yl)ethyl]amino}phenyl]-1,3,4-oxadiazol-2(3H)-one hydrochloride]: the GI50 in test [1] is 89 nM. The compound further registered an IC50 in test [2] of 12 nM.
The corresponding values for `CC(CC1CCNCC1)Nc1cc(-c2n[nH]c(=O)o2)ccc1C(F)(F)F` (stereo not drawn) [Example 81, 5-[3-{[1-(piperidin-4-yl)propan-2-yl]amino}-4-(trifluoromethyl)phenyl]-1,3,4-oxadiazol-2(3H)-one hydrochloride] are 600 nM and 4.3 nM.
